Entries after “also recorded” stand apart in the source; their conditions may differ.
Experiments:
human CaSR = biological target: T1, human CaSR (Homo sapiens, UniProt P41180); assay: CaSR binding affinity estimated from differential fluorescence between HCAR (CaSR+) and CCL39 (CaSR-) cells
T1 construct: host or cells: CCL39 hamster lung fibroblasts stably transfected (HCAR), Geneticin selection
T1 sequence (P41180 20-1078): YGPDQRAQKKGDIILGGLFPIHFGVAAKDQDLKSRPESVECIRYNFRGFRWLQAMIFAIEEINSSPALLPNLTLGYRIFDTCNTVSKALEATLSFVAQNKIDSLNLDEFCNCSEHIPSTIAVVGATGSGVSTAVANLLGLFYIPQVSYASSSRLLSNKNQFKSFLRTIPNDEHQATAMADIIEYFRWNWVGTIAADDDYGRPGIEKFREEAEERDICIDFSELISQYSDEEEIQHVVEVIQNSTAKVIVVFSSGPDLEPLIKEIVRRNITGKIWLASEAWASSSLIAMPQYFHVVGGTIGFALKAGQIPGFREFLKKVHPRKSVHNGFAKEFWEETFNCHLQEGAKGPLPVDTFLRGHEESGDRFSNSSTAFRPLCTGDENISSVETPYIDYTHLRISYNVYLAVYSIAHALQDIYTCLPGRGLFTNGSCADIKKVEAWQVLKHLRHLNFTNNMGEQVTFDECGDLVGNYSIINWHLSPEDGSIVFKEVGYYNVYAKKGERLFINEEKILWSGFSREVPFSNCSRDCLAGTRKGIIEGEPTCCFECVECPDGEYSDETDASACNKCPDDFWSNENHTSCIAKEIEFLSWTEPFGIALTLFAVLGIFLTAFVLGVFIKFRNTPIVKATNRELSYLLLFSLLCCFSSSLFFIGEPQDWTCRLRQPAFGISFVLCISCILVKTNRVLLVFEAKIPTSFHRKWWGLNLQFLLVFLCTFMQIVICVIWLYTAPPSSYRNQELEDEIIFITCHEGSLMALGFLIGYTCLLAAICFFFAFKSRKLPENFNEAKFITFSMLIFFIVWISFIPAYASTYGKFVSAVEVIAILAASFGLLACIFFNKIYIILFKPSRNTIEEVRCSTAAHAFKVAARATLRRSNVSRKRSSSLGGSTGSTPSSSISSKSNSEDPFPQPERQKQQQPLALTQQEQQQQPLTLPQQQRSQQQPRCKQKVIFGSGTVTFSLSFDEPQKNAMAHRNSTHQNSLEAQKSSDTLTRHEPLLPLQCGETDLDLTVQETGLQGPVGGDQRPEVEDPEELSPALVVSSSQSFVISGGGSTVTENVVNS
Protocol: Hamster lung fibroblasts (CCL39, CaSR−) expressing the recombinant human CaSR (HCAR, CaSR+) and nontransected controls were kindly provided by Novartis AG and were kept in standard culturing conditions (37 °C, 5% CO2) in 1/2 DMEM (Roth, 9005.1)—1/2 F-12 (Sigma, N4888–500 mL) media containing 10% FBS. Media for the HCAR cells contained 500 μg/mL Geneticin as a selection antibiotic (Thermo Fisher, 10131035). Upon reaching 90–95% confluence, cells were detached and seeded into 96-well plates (PerkinElmer, 6005182) at a concentration of 35,000 cells per well and were incubated for 24 h before the experiment. For the functional CaSR calcium assay, cells were first washed twice with HBSS medium (Sigma, H6648), and were incubated in HBSS containing 5 μM Fluo-8 AM and 0.1 mM CaCl2 for 30 min at 37 °C. Calcium transients were measured upon addition of 0.5 mM CaCl2 with the FLIPR Tetra high-throughput cellular screening systems using the 470–495 nm LED excitation and 515–575 nm bandpass emission filters. Probe solutions contained 0.5% DMSO and were added to the cells 10 min prior to the measurement. dF/F0 values were calculated as a change in the peak fluorescence value of the transient for the first 200 data points normalized to the background fluorescence of the well. […] Both cells were washed with HBSS medium twice and then incubated for 10 min at 37 °C in HBSS medium containing 0.1% BSA in the presence or absence of 10 μM evocalcet. Upon the removal of media, cells were incubated in various concentrations of EvoSiR4 and EvoSiR6 in HBSS containing 0.1% BSA for 30 min at 37 °C and were subsequently washed 3 times with 0.1% BSA and resuspended in DMSO before the fluorometric measurement. The fluorescence was measured using a Tecan GENios pro microplate reader with the following parameters: λex = 612 nm, λem = 670 nm, gain = 50 AU. Data for the EvoSiR probes and the evocalcet competition is reported as CaSR-specific fluorescence, which was calculated by dividing the absolute fluorescence of the HCAR cells with the absolute fluorescence of the CCL39 cells for each concentration.

HCAR cells = assay: Calcein AM viability assay, HCAR cells, 72 h; type: cell-based, hamster; settings: for IC50: Cricetulus griseus
Protocol: (§1) The effects of EvoSiR probes and evocalcet on the viability of CCL39 and HCAR cells were evaluated using the Calcein AM assay as described by the manufacturer’s protocol (AAT Bioquest, 22002) with a working concentration of 10 μM. For the assay, cells were incubated in various concentrations of the compounds for 72 h. For positive controls, cells were incubated in culture media containing maximum 10% DMSO in a two-step dilution series for 72 h. Upon incubation in the Calcein AM solution for 1 h at 37 °C, the fluorescence readouts were retrieved using the Tecan GENios pro microplate reader (λex = 485 nm, λem = 535 nm, gain = 25 AU)

CCL39 cells = assay: Calcein AM viability assay, CCL39 cells, 72 h; type: cell-based, hamster
Protocol: as §1

[1] = Photophysical characterization; type: physicochemical; parameters: λex / λem: unit not given here; settings: for quantum yield Φ: 94% ethanol, 750 nM, relative to Rhodamine B; for λem / λex: Table 1; for extinction coefficient ε: absorbance at 150–1350 nM, 1 cm cuvette
[2] = biological target: T2, bovine serum albumin (BSA) (Bos taurus, UniProt P02769); assay: Spectrofluorometric analysis of fluorogenicity upon BSA binding; type: physicochemical; settings: for increase in absolute fluorescence upon addition of 1% BSA: 1% BSA compared to PBS
T2 construct: purchased Sigma A7906
T2 sequence (P02769 25-607): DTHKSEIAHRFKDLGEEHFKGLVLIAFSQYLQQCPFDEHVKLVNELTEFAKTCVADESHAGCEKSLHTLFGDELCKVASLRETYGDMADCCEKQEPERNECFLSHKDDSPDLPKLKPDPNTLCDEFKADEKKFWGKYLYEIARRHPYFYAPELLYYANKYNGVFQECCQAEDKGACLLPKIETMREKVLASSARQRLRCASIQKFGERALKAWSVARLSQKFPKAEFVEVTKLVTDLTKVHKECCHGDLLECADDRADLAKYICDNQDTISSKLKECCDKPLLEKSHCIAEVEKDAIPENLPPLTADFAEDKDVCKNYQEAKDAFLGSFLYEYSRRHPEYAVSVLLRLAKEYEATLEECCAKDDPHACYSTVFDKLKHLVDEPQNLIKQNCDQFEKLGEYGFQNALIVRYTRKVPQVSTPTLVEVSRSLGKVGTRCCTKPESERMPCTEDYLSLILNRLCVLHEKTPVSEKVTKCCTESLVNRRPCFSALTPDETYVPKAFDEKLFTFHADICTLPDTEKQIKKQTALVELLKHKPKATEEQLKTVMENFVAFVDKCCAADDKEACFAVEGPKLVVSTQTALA
Protocol: Spectrofluorometric measurements were carried out by using the Agilent Cary Eclipse instrument. The voltage of the photomultiplier tube (PMT) was set to 600 for EvoSiR4 and EvoSiR6, and for 500 for SiR (4). Fluorescence of the probes was measured at concentrations ranging from 30 to 3000 nM in PBS containing various amounts of bovine serum albumin (BSA) (Sigma, A7906). Quenching experiments for the calculation of BSA binding were performed by adding a 1:1 molar ratio of tannic acid dissolved in ddH2O (Sigma, 403040) to the solution prior to measuring fluorescence.

effect of preincubation on CaSR-specific increase in relative fluorescence of EvoSiR probes (human CaSR; 10 μM evocalcet preincubation)	Compound	Kd (human CaSR)	effect on viability at 50 μM (HCAR cells)	IC50 (HCAR cells)	IC50 (CCL39 cells)	effect on viability at 50 μM (CCL39 cells)	fluorescence lifetime τ [1]	quantum yield Φ [1]	λem [1]	λex [1]	extinction coefficient ε [1]	fold increased fluorescence in 0.1% BSA compared to PBS [2]	increase in absolute fluorescence upon addition of 1% BSA [2]	concentration below which no effect on viability (HCAR cells)	concentration below which no effect on viability (CCL39 cells)	effect of preincubating the BSA solution with evocalcet on EvoSiR4 fluorescence ([2]; evocalcet 30–6000 nM, 350 nM EvoSiR4)
–	Cc1cc(C(=O)NCCCCNC(=O)Cc2ccc(N3CC[C@H](N[C@H](C)c4cccc5ccccc45)C3)cc2)ccc1C1=C2C=CC(=[N+](C)C)C=C2[Si](C)(C)c2cc(N(C)C)ccc21 [EvoSiR4]	0.0536 ± 0.0184 µM	significantly reduced	27.3 ± 2.3 µM	36 ± 3.8 µM	significantly reduced	2.43 ± 0.164 ns	0.288	670	650	14,175 M^–1 cm^–1	4 fold	400%	–	–	–
completely abolished	C[C@@H](N[C@H]1CCN(c2ccc(CC(=O)O)cc2)C1)c1cccc2ccccc12 [evocalcet]	–	–	–	–	–	–	–	–	–	–	–	–	< 50 µM	< 50 µM	No significant decrease; also recorded: no significant difference
–	Cc1cc(C(=O)NCCCCCCNC(=O)Cc2ccc(N3CC[C@H](N[C@H](C)c4cccc5ccccc45)C3)cc2)ccc1C1=C2C=CC(=[N+](C)C)C=C2[Si](C)(C)c2cc(N(C)C)ccc21 [EvoSiR6]	0.071 ± 0.00956 µM	significantly reduced	26 ± 2.3 µM	36 ± 6 µM	significantly reduced	2.33 ± 0.135 ns	0.278	670	650	16,601 M^–1 cm^–1	1.8 fold	250%	–	–	–

Reference: publication PMC11091967, “Silicon-Rhodamine Functionalized Evocalcet Probes Potently and Selectively Label Calcium Sensing Receptors In Vitro, In Vivo, and Ex Vivo” (ACS Pharmacology & Translational Science, 2024)
